Like-named read-outs stand apart in the source and are kept apart here. Marks after values point to notes of the source that are not given here.
Columns and labels:
[1] = Recovery (mass balance) of flavonoids during Caco-2 transport assay; format: in vitro ADME; settings: human, Caco-2, mass balance, both sides of insert plus cells
Protocol: The recovery of the flavonoid glycosides during the transport assays was determined by mass balance and was measured as total amount of the flavonoids on both sides of the insert and in the Caco-2 cells.

[2] = Stability of flavonoids in D-Hank's buffer relative to methanol; format: physicochemical; settings: 20 μM flavonoid, HPLC peak area in D-Hank's / peak area in methanol × 100%
Protocol: The relative stability was expressed as the relative appearance of flavonoids in different solvents. Each flavonoid (20 μM) was dissolved in two different solvents, D-Hank’s and methanol. […] Relative concentration in D-Hank’s (%) = Peak area in D-Hank’s/Peak area in methanol × 100%(3)

Caco-2 cell monolayer [3] = test: Cellular accumulation (CA) of flavonoids in Caco-2 cell monolayer; settings: for CA: both sides (CA A to B and CA B to A); for CA A to B: accumulated in cell monolayer after transport apical to basolateral; for CA A to B / CA B to A: 40 μM, 1 h, normalized to cellular protein, mean ± SD, n = 3; for CA B to A: accumulated in cell monolayer after transport basolateral to apical; for Ratioc (ratio of CA B to A to CA A to B): Caco-2 monolayer
Protocol: (§1) After the collection of samples from both AP and BL sides, the hanging insert was rinsed twice with ice-cold D-Hank’s buffer to stop further transport, and lysed with 0.1% Triton X-100 in D-Hank’s buffer then placed in an ultrasonic bath for 15 min. Cell lysates were collected and centrifuged at 7000× g for 10 min. Supernatants were analyzed by BCA kit (Dingguochangsheng Biotechnology, Beijing, China) for protein content. After protein content assay, supernatants were immediately frozen, lyophilized and preserved at −80 °C. The flavonoid concentration in lysis solution was determined by HPLC and normalized with cellular protein content.
(§2) To determine both the permeability and CA of flavonoids in Caco-2 cells, the lyophilized samples were dissolved in running 120 to 200 μL methanol, and centrifuged at 7000× g for 5 min. Aliquot of 20 μL of the supernatant solution was used for assay using Waters e2695 HPLC system (Milford, MA, USA) fitted with an Amethyst C18-H column (250 mm × 4.6 mm i.d., 5 μm; Sepax, Newark, DE, USA). The mobile phase consisted of A (0.01 M phosphoric acid (H3PO4))/B (acetonitrile) with 1.0 mL/min flow rate. […] Peak area measurement was used to obtain standard calibration curves to determine concentration of each flavonoid.

[4] = Cell viability (MTT) assay of flavonoids in Caco-2 cells; format: cell-based; settings: human
Protocol: The cytotoxicity of flavonoids and colchicine was evaluated by MTT assay. The cells were grown in 96-well plates at a density of 1 × 10^4 cells/well. After incubation with 40 μM flavonoid for 24 h, the cells were further incubated with an MTT solution (0.5 mg/mL) for 4 h at 37 °C. Finally, after removal of the supernatant, 150 μL dimethyl sulphoxide was added to each well to dissolve crystallized MTT. Absorbance was read at 570 nm with a multiskan spectrum microplate reader (Thermo Labsystems, Waltham, MA, USA). The percentage cell viability relative to that of the control cells was used as the cytotoxicity measure.

[5] = Permeability (bidirectional transport) of flavonoids in Caco-2 cell monolayers; format: in vitro ADME; settings: human; for Papp A→B at 60 min, 40 μM: Caco-2, apical to basolateral; for Papp A→B at 60 min, 40 μM / Papp B→A at 60 min, 40 μM: incubation 60 min, 37 °C, D-Hank's pH 7.4, mean ± SD, n = 3–6; for Papp B→A at 60 min, 40 μM: Caco-2, basolateral to apical; for Papp at 1 h, 40 μM: Caco-2 monolayer; for efflux ratio at 60 min, 40 μM: pH 7.4, Caco-2 monolayer, read-out: Ratiop (ratio of Papp B to A to Papp A to B)
Protocol: Caco-2 cells were cultured in MEM supplemented with 10% FBS, 1% NEAA, penicillin (100 U/mL) and streptomycin (100 μg/mL) in an atmosphere of 5% CO2 and 90% relative humidity at 37 °C. All cells used in this study were between passages 35 and 45 [16].
Caco-2 cells were seeded at a density of about 8 × 10^4 cells/cm^2 on a 12 wells Millicell hanging insert and left to grow for 19–21 days to reach confluence. Culture medium was replaced every other day for 14 days and daily thereafter. The integrity and transport ability of the Caco-2 cells monolayer were examined by measuring the trans-epithelial electrical resistance (TEER) with a Millicell voltammeter (Millicell ERS-2, Merck Millipore, Billerica, MA, USA) and running standard assays using Lucifer yellow CH as paracellular flux marker. […] Differentiation of Caco-2 cells was checked after 4 and 12 days by determining the activity of alkaline phosphatase with an assay kit (Nanjing Jiancheng Bioengineering Institute, Nanjing, China) and after 21 days transmission electron microscopy was performed on Caco-2 monolayer to evaluate differentiation.
The Caco-2 cell monolayer was washed with D-Hank’s buffer (pH 7.4). Then, the flavonoid (40 μM) was added to either the apical (AP, 0.4 mL) or basolateral (BL, 1.95 mL) side, while the receiving chamber contained the corresponding volume of D-Hank’s buffer and incubated for 1 h at 37 °C. Solutions from both AP and BL sides of Caco-2 cell monolayer were collected and immediately frozen, lyophilized and preserved at −80 °C for high performance liquid chromatography (HPLC) analysis. Papp was calculated from Equation (1), where ΔQ/Δt is the rate of the flavonoid on the accepting chamber (μM/s), A is the surface area of the hanging insert (cm^2) and C0 is the initial concentration of tested flavonoid in donating chamber (μM/mL).(1) Papp=ΔQ/Δt/AC0

Caco-2 cell monolayer [6] = settings: human, Caco-2, 1 h, 40 μM, pH 7.4
Protocol: as §1, §2

[7] = transport apical to basolateral, read-out: Recovery (A to B, %)
[8] = transport basolateral to apical, read-out: Recovery (B to A, %)
[9] = Caco-2, pH 7.4, as stated in text, direction not specified (bilateral)
[10] = pH 7.4, direction not specified (bilateral)

Structure (SMILES)	recovery [1, 7] [%]	recovery [1, 8] [%]	Relative concentration of flavonoids, D-Hank's/methanol (%) [2]	CA (Caco-2 cell monolayer [3])	viability at 24 h, 40 μM [4] [%]	Papp A→B at 60 min, 40 μM [5] [×10⁻⁶ cm/s]	Papp B→A at 60 min, 40 μM [5] [×10⁻⁶ cm/s]	Papp at 1 h, 40 μM [5, 9] [×10⁻⁶ cm/s]	CA A to B (Caco-2 cell monolayer [3]) [µmol/g]	CA B to A (Caco-2 cell monolayer [3])	CA (Caco-2 cell monolayer [6]) [µmol/g]	Ratioc (ratio of CA B to A to CA A to B) (Caco-2 cell monolayer [3])	efflux ratio at 60 min, 40 μM [5]	Papp at 1 h, 40 μM [5, 10] [×10⁻⁶ cm/s]	Relative concentration of flavonoids, D-Hank's/methanol (%) ([2]; listed as chrysin)
C[C@@H]1O[C@@H](OC[C@H]2O[C@@H](Oc3c(-c4ccc(O)c(O)c4)oc4cc(O)cc(O)c4c3=O)[C@H](O)[C@@H](O)[C@@H]2O)[C@H](O)[C@H](O)[C@H]1O [Compound 17, Rutin]	98.2 ± 4.74	97 ± 1.67	66.82%	not detected	106 ± 5.48	4.04 ± 0.07	4.28 ± 0.44	< 6	–	–	–	–	–	–	–
O=C1C[C@@H](c2ccc(O)cc2)Oc2cc(O)ccc21 [Compound 21, Liquiritigenin]	–	–	–	–	101 ± 4.27	31 ± 0.8	37 ± 1.97	> 30	0.635 ± 0.146	1.234 ± 0.249 ^a μmol/g	< 5	–	–	–	–
O=C1C[C@@H](c2ccc(O)cc2)Oc2cc(O)cc(O)c21 [Compound 19, Naringenin]	–	–	113.93%	< 5 µmol/g	95.6 ± 3.47	32.1 ± 2.98	35.3 ± 1.16	> 30	1.935 ± 0.305	4.436 ± 0.299 ^b μmol/g	–	2.29	1.1	–	–
O=c1c(O)c(-c2cc(O)c(O)c(O)c2)oc2cc(O)cc(O)c12 [Compound 14, Myricetin]	–	–	lower than 40%	not detected	101 ± 3.15	0.29 ± 0.01	0.44 ± 0.01	–	–	–	–	–	1.5	< 0.5	–
O=c1cc(-c2ccccc2)oc2cc(O)cc(O)c12 [Compound 7, Chrysin]	–	–	47.63%	–	103 ± 4.94	6.78 ± 0.12	8.41 ± 0.62	–	3.902 ± 0.251	8.828 ± 0.213 ^b μmol/g	–	2.26	1.24	–	less than 50%
COc1ccc([C@@H]2CC(=O)c3c(O)cc(O)cc3O2)cc1O [Compound 18, Hesperetin]	–	–	115.83%	–	100 ± 2.7	23.5 ± 0.85	27.9 ± 2.76	> 20	1.293 ± 0.086	1.644 ± 0.300 µmol/g	–	1.27	1.19	–	–
O=c1cc(-c2ccc(O)c(O)c2)oc2cc(O)cc(O)c12 [Compound 5, Luteolin]	–	–	87.51%	–	101 ± 4.19	10.1 ± 7.33	21.4 ± 2.12	–	3.876 ± 0.741	8.639 ± 1.275 ^b μmol/g	–	2.23	2.12	–	–
O=c1c(-c2ccc(O)cc2)coc2c([C@@H]3O[C@H](CO)[C@@H](O)[C@H](O)[C@H]3O)c(O)ccc12 [Compound 24, Puerarin]	87.4 ± 3.31	85.25 ± 0.6	30.31%	not detected	105 ± 6.13	2.25 ± 0.96	2.7 ± 0.41	< 6	–	–	–	–	–	–	–
C[C@@H]1O[C@@H](Oc2c(-c3ccc(O)c(O)c3)oc3cc(O)cc(O)c3c2=O)[C@H](O)[C@H](O)[C@H]1O [Compound 16, Quercitrin]	90.7 ± 8.85	76.8 ± 9.36	116.67%	not detected	98.4 ± 3.86	4.24 ± 1.25	5.96 ± 1.2	–	–	–	–	–	–	< 6	–
